# Patent US8367666B2 (priority 2004, dated 2013)
# Tested on: respiratory function after cigarette smoke exposure
# Assay: Cigarette smoke exposure, deterioration of guinea pig's breath function (COPD model)
# Assay type: in vivo, Hartley guinea pig
# Conditions: 30 mg/kg a day, oral, Student t-test
# Protocol: The main current smoke of a cigarette with a filter tip commercially available (Highlight, nicotine 1.4 mg content, and tar 17 mg content, Japan Tabaco Inc.) was exposed to the nose and the mouth of a Hartley guinea pig (obtained from Japan SLC Co., Ltd.) at the rate of 30 pieces of the cigarettes a day for five days a week during 30 days with a cigarette smoke exposure device for an animal (manufactured by […] Co., Ltd.). (Wright J L, Churg A. Cigarette smoke causes physiologic and morphologic changes of emphysema in the guinea pig Am. Rev. Respir. Dis. 1990 142:1422-8). […] After 16 to 24 hours had passed from the final cigarette smoke exposure, the trachea incision of the guinea pig was conducted under urethane ([…], i.p.) anesthesia, and a cannula was intubated and installed in a respiratory function measuring device system, a maneuver (manufactured by Baxco Co., Ltd.) for small animals. The respiratory function of the guinea pig was measured according to the protocol of the maneuver. In the medium administered control group and the medicine administered group, the amount of a functional residual air, the increase in the total lung capacity, and the decrease in the dynamic lung compliance by the cigarette smoke exposure were compared and the test of the significant difference was conducted. The data will be shown by the average±the standard deviation. […]
smiles,measurement,value
"COC(=O)C(NC(=O)c1cc2c(n(CC=O)c1=O)CCCCCC2)C(C)C (centres unmarked) [(1), methyl 3-methyl-2-{[2-oxo-1-(2-oxo-ethyl)-1,2,5,6,7,8,9,10-octahydro-cycloocta[b]pyridine-3-carbonyl]-amino}-butyrate]","increase in the amount of a functional residual air by the cigarette smoke exposure, difference to medium group",significant difference of P<0.05
same,"increase in the total lung capacity by the cigarette smoke exposure, difference to medium group",significant difference of P<0.05
